What was measured:
[1] = administered dosage; cited from earlier work
[2] = Dissolution of paracetamol in hydroalcoholic solution; assay type: physicochemical; settings: ethanol at 45%
Method: The coefficient for dissolution of paracetamol in ethanol makes it possible to obtain a complete dissolution of said active ingredient at a level of 250 mg of paracetamol per 2 ml of ethanol at 45%. This coefficient can be modulated based on the degree of alcohol and the water/ethanol ratio that is used. By way of example, a 45% water/ethanol mixture at 50/50 by volume produces a better solubilization of paracetamol, compared to that obtained in pure ethanol.

CC(=O)Nc1ccc(O)cc1 [paracetamol]
dosage above which toxic to the liver [1]: higher than 4 g
complete dissolution of the active ingredient [2]: 250 mg per 2 ml

— patent US8722744B2, “Galenical form for the administration of paracetamol by transmucous means” (priority 2006, dated 2014)
